In patent US20240208978A1, “IDH MUTANT INHIBITOR AND USE THEREOF” (WIGEN BIOMEDICINE TECHNOLOGY (SHANGHAI) CO., LTD., priority 2021, published 2024):

Target: T1, mIDH1 R132H (Homo sapiens, UniProt O75874, R132H)
T1 construct: expressed in transfected cells; host or cells: U87MG
Experiment: Detection of 2-HG in supernatant of U87-IDH1 R132H cells
Type: cell-based
Details: U-87 MG, 72 h, U87MG cells overexpressing mIDH1 R132H, LC-MS-MS; for inhibition at 0.001 µM: 1 nM compound, read-out: Inhibition rate on 2-HG in the supernatant of U87-IDH R132H cells, 1 nM; for inhibition at 0.01 µM: 10 nM compound, read-out: Inhibition rate on 2-HG in the supernatant of U87-IDH R132H cells, 10 nM; for inhibition at 0.1 µM: 100 nM compound, read-out: Inhibition rate on 2-HG in the supernatant of U87-IDH R132H cells, 100 nM
Experimental: U87MG cells overexpressing the mIDH1 R132H mutation or HT1080 cells carrying IDH1 R132C were seeded in a 48-well plate and a 96-well plate at 50,000 cells/well and 10,000 cells/well, respectively. After the cells were incubated overnight for adhesion, the supernatants were removed. The cell culture media containing serially diluted compounds were added, and the cells were incubated for 72 h. After 72 h, the culture media were collected and diluted 10-fold and 20-fold with water, respectively. Acetonitrile was added to extract the metabolites. The 2-HG content in the culture media was analyzed by LC-MS-MS. The percentage inhibition and IC50 of the compounds on 2-HG in the supernatant were calculated as compared with the control group.

T1 sequence (O75874 whole entry R132H): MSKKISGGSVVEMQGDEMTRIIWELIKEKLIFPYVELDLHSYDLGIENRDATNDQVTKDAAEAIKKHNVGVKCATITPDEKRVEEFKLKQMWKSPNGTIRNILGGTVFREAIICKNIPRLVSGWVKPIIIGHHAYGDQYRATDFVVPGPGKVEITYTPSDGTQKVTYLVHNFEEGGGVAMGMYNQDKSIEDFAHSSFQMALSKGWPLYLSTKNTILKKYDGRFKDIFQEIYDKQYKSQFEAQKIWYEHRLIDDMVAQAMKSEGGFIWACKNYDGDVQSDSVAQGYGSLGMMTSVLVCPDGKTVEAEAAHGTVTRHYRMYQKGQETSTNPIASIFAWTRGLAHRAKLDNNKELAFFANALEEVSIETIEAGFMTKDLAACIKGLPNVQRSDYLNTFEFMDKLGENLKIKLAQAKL

Row | Structure (SMILES) | inhibition at 0.001 µM | inhibition at 0.01 µM | inhibition at 0.1 µM
1 | C=CC(=O)N1CCN(C(CC2CC2)c2ccc([C@H](C)Nc3ncc4[nH]c(=O)n(C5CCC5)c4n3)cc2)CC1 (stereo partly drawn) [Compound 5] | 30 to 60% | > 90% | > 90%
2 | C=CC(=O)N1CCN(C(CC2CC2)c2ccc([C@H](C)Nc3ncc4[nH]c(=O)n(C)c4n3)cc2)CC1 (stereo partly drawn) [Compound 2] | 30 to 60% | 60 to 90% | > 90%
3 | C=CC(=O)N1CCN(C(CC23CC(C2)C3)c2ccc([C@H](C)Nc3ncc4[nH]c(=O)n(C5CCCC5)c4n3)cc2)CC1 (stereo partly drawn) [Compound 36] | 30 to 60% | > 90% | > 90%
4 | C=CC(=O)N1CCN(C(CC)(CC)c2ccc([C@H](C)Nc3ncc4[nH]c(=O)n(CC)c4n3)cc2)CC1 [Compound 14] | 30 to 60% | > 90% | > 90%
5 | C=CC(=O)N1CCN(C(CC(C)C)c2ccc([C@H](C)Nc3ncc4[nH]c(=O)n(C5CCC5)c4n3)cc2)CC1 (stereo partly drawn) [Compound 31] | 30 to 60% | > 90% | > 90%
6 | C=CC(=O)NC1CN(C(CC2CC2)c2ccc([C@H](C)Nc3ncc4[nH]c(=O)n(CC)c4n3)cc2)C1 (stereo partly drawn) [Compound 25] | 60 to 90% | 60 to 90% | > 90%
7 | C=CC(=O)N1CCC(N(C)C(CC2CC2)c2ccc([C@H](C)Nc3ncc4[nH]c(=O)n(CC)c4n3)cc2)CC1 (stereo partly drawn) [Compound 23] | 30 to 60% | 60 to 90% | > 90%
8 | C=CC(=O)N1CCN(C(CC(C)C)c2ccc([C@H](C)Nc3ncc4[nH]c(=O)n(C5CC5)c4n3)cc2)CC1 (stereo partly drawn) [Compound 30] | 30 to 60% | > 90% | > 90%
9 | C=CC(=O)N(C)C1CCN(C(CC2CC2)c2ccc([C@H](C)Nc3ncc4[nH]c(=O)n(CC)c4n3)cc2)CC1 (stereo partly drawn) [Compound 28] | 30 to 60% | 60 to 90% | > 90%
10 | C=CC(=O)NC1CCN(C(CC2CC2)c2ccc([C@H](C)Nc3ncc4[nH]c(=O)n(CC)c4n3)cc2)CC1 (stereo partly drawn) [Compound 26] | 60 to 90% | 60 to 90% | > 90%
11 | C=CC(=O)N1CC(N(C)C(CC2CC2)c2ccc([C@H](C)Nc3ncc4[nH]c(=O)n(CC)c4n3)cc2)C1 (stereo partly drawn) [Compound 24] | 30 to 60% | 60 to 90% | > 90%
12 | C=CC(=O)N1CCN(C(CC23CC(C2)C3)c2ccc([C@H](C)Nc3ncc4[nH]c(=O)n(CC)c4n3)cc2)CC1 (stereo partly drawn) [Compound 12] | 30 to 60% | > 90% | > 90%
13 | C=CC(=O)N1CCN(C(CC2CC2)c2ccc([C@H](C)Nc3ncc4c(n3)n(CC)c(=O)n4C)cc2)CC1 (stereo partly drawn) [Compound 37] | < 30% | 60 to 90% | 60 to 90%
14 | C=CC(=O)N1CCN(C(CC2CCC2)c2ccc([C@H](C)Nc3ncc4[nH]c(=O)n(CC)c4n3)cc2)CC1 (stereo partly drawn) [Compound 10] | 30 to 60% | 60 to 90% | > 90%
15 | C=CC(=O)N1CCN(C(CC2(C)CC2)c2ccc([C@H](C)Nc3ncc4[nH]c(=O)n(CC)c4n3)cc2)CC1 (stereo partly drawn) [Compound 13] | 30 to 60% | 60 to 90% | > 90%
16 | C=CC(=O)N1CC2(CCN(C(CC3CC3)c3ccc([C@H](C)Nc4ncc5[nH]c(=O)n(CC)c5n4)cc3)CC2)C1 (stereo partly drawn) [Compound 22] | 60 to 90% | 60 to 90% | > 90%

Row | Structure (SMILES) | inhibition at 0.001 µM | inhibition at 0.01 µM | inhibition at 0.1 µM
17 | C=CC(=O)N1CC2(C1)CN(C(CC1CC1)c1ccc([C@H](C)Nc3ncc4[nH]c(=O)n(CC)c4n3)cc1)C2 (stereo partly drawn) [Compound 18] | 30 to 60% | > 90% | > 90%
18 | C=CC(=O)N1CCC2(C1)CN(C(CC1CC1)c1ccc([C@H](C)Nc3ncc4[nH]c(=O)n(CC)c4n3)cc1)C2 (stereo partly drawn) [Compound 19] | 30 to 60% | 60 to 90% | > 90%
19 | C=CC(=O)N1CCN(C(CC23CC(C2)C3)c2ccc([C@H](C)Nc3ncc4[nH]c(=O)n(C5CC5)c4n3)cc2)CC1 (stereo partly drawn) [Compound 34] | 60 to 90% | > 90% | > 90%
20 | C=CC(=O)N1CCC2(CC1)CN(C(CC1CC1)c1ccc([C@H](C)Nc3ncc4[nH]c(=O)n(CC)c4n3)cc1)C2 (stereo partly drawn) [Compound 20] | 30 to 60% | 60 to 90% | > 90%
21 | C=CC(=O)N1CCN(C2(c3ccc([C@H](C)Nc4ncc5[nH]c(=O)n(CC)c5n4)cc3)CCC(F)(F)CC2)CC1 [Compound 17] | 30 to 60% | 60 to 90% | > 90%
22 | C=CC(=O)N1CCN(C(CC23CC(C2)C3)c2ccc([C@H](C)Nc3ncc4[nH]c(=O)n(C5CCC5)c4n3)cc2)CC1 (stereo partly drawn) [Compound 35] | 30 to 60% | > 90% | > 90%
23 | C=CC(=O)N1CCN(C2(c3ccc([C@H](C)Nc4ncc5[nH]c(=O)n(CC)c5n4)cc3)CCCCC2)CC1 [Compound 16] | 30 to 60% | 60 to 90% | > 90%
24 | C=CC(=O)N1CCN(C(CC(C)C)c2ccc([C@H](C)Nc3ncc4[nH]c(=O)n(C5CCCC5)c4n3)cc2)CC1 (stereo partly drawn) [Compound 32] | 30 to 60% | > 90% | > 90%
25 | C=CC(=O)N1CC2(CCN(C(CC3CC3)c3ccc([C@H](C)Nc4ncc5[nH]c(=O)n(CC)c5n4)cc3)C2)C1 (stereo partly drawn) [Compound 21] | 30 to 60% | 60 to 90% | > 90%
26 | C=CC(=O)N1CCN(C(CC2CC2)c2ccc([C@H](C)Nc3ncc4[nH]c(=O)n(C5CC5)c4n3)cc2)CC1 (stereo partly drawn) [Compound 4] | 30 to 60% | > 90% | > 90%
27 | C=CC(=O)N1CCN(C(CC2CC2)c2ccc([C@H](C)Nc3ncc4[nH]c(=O)n(C5CCCC5)c4n3)cc2)CC1 (stereo partly drawn) [Compound 6] | < 30% | 60 to 90% | > 90%
28 | N#Cc1ccnc(N2C(=O)CC[C@H]2C(=O)N(c2cncc(F)c2)[C@H](C(=O)NC2CC(F)(F)C2)c2ccccc2Cl)c1 [Ivosidenib, ivosidenib, reference compound] | < 30% | < 30% | 60 to 90%
29 | C=CC(=O)N(C)C1CN(C(CC2CC2)c2ccc([C@H](C)Nc3ncc4[nH]c(=O)n(CC)c4n3)cc2)C1 (stereo partly drawn) [Compound 27] | < 30% | 60 to 90% | > 90%
30 | C=CC(=O)N1CCN(C(CC(C)C)c2ccc([C@H](C)Nc3ncc4[nH]c(=O)n(C(C)C)c4n3)cc2)CC1 (stereo partly drawn) [Compound 29] | 60 to 90% | > 90% | > 90%
31 | C=CC(=O)N1CCN(C2(c3ccc([C@H](C)Nc4ncc5[nH]c(=O)n(CC)c5n4)cc3)CCCC2)CC1 [Compound 15] | 30 to 60% | > 90% | > 90%
32 | C=CC(=O)N1CCN(C(CC2CC2)c2ccc(C3(Nc4ncc5[nH]c(=O)n(CC)c5n4)CC3)cc2)CC1 (stereo not drawn) [Compound 39] | < 30% | 60 to 90% | > 90%
